Test system: various enteroviruses
Experiment: broad-spectrum anti-enteroviral activity (CPE), summary over viruses
Assay type: cell-based
Details: all viruses of Table 1; read-out: EC50 values against various enteroviruses
Protocol: In this experiment, the experiment on protection of EIDD-1931 and EIDD-2801 against CPE caused by EV-A71 virus AH08/06 strain, EV-D68 virus STL-2014-12 strain, CV-A6 TW-2007-00141 strain, and CV-A16 190-D1 strain were all performed by using RD cells. The experiments on protection of EIDD-1931 and EIDD-2801 against CPE caused by CV-B3 Nancy strain were performed by using Vero cells. The specific experimental methods were the same as those in Example 1.

`O=c1nc(NO)ccn1[C@@H]1O[C@H](CO)[C@@H](O)[C@H]1O` [EIDD-1931] was tested, and the EC50 was under 20 µM.

— patent US20260158050A1, “USE OF EIDD-1931 OR DERIVATIVE THEREOF IN TREATMENT OF ENTEROVIRUS INFECTION” (ACADEMY OF MILITARY MEDICAL SCIENCES, priority 2022, published 2026)
